Test results from US20060239927A1, “Drug for airway administration” (Kyowa Hakko Kogyo Co.,, priority 2003, published 2006).

Legend:
Type in all cases: in vivo
[1] = tested on: gastric excretion; experiment: Inhibitory activity for gastric excretion by intrabronchial administration (Phenol Red method); details: SD rats, intrabronchial 30 minutes before P-C solution, 30 to 100 μg/rat
Protocol: Male SD rats (six weeks age; body weight upon purchase was 180 to 200 g; Nippon SLC) were used for the test. The rats were bred in an animal room where room temperature was 23±1° C., humidity was 55±5% and solid feed and drinking water were made freely taken by them.
Suspensions for administration of Compound (II) and RP 73401 were prepared by the same manner as in Test Example 1 and each of them was subjected to an intrabronchial administration.
The rats (body weight used for the experiment: about 200 g) were fasted on the day before the test (before about 24 hours) and were bred only by drinking water. A test for gastric excretion was conducted according to a Phenol Red method [Arch. Int. […]
A 1.5 mL of an 1.5 weight/volume % carboxymethyl cellulose (CMC) solution containing a 0.05 weight/volume % Phenol Red (hereinafter, referred to as P—C solution) was orally administered to the rats where one group comprised six rats. […] The extirpated stomach was incised in 40 mL of a 0.1 mol/L aqueous NaOH solution to recover the P—C solution and the amount of Phenol Red remaining in the stomach was measured. […] The gastric excretion ratio (%) in the agent-administered group or the solvent-administered group was calculated by the following equation (1) while the inhibition rate (%) of the agent to the gastric excretion was calculated from the gastric excretion ratio using the following equation (2). […]

[2] = tested on: antigen-induced neutrophil infiltration; experiment: Antigen-induced neutrophil infiltration, intrabronchial administration (BALF cell count); details: BN rats; for Number of neutrophils: BAL 24 hours after antigenic exposure, mean ± standard error; for inhibitory effect to infiltration of neutrophils induced by antigen (in words): 30 to 100 μg/rat
Protocol: (§1) The test was conducted in accordance with a known method [Pulmonary Pharmacology, volume 8, pages 83-89 (1995)].
(§2) Male BN rats of six weeks age (Nippon Charles Liver) were used for the test. Five to six rats were put in each plastic cage in a breeding room where the room temperature was 19 to 25° C., humidity was 30 to 70% and a daily illumination was 12 hours (from 7 a.m. to 7 p.m.), and breeding was conducted where commercially available solid feed and water were freely taken by the rats.
(§3) A suspension (1 mL) of 1 mg of ovalbumin (OVA; manufactured by Sigma) and 200 mg of aluminum hydroxide (manufactured by Wako Pure Chemical) in 1 mL of a physiological saline (manufactured by Otsuka Pharmaceutical) was subcutaneously administered to each rat, and then 0.5 mL of a suspension of killed Virdetella pertussis (2×10^10 cells/mL physiological saline solution; manufactured by Kaken Pharmaceutical) was intraperitoneally administered to conduct active sensitization. After 14 days from the active sensitization, the rats were placed in a plastic chamber (30×50×30 cm) and subjected to an antigenic exposure by nebulizing of an 1 weight/volume % solution of OVA in a physiological saline for 10 minutes. For the nebulizing, an ultrasonic nebulizer (manufactured by Omron) was used.
(§4) By the same manner as in Test Example 1, a suspension for administration of Compound (II) was prepared and intrabronchially administered to the sensitized rats.
(§5) Before 30 minutes of the antigenic exposure, the solvent for administration or the suspension for administration of Compound (II) was intrabronchially administered to the sensitized rats at a dose of 100 μL to each of right and left bronchi (200 μL in total). A group where a suspension for administration of Compound (II) was intrabronchially administered to the sensitized rat and an 1 weight/volume % OVA-physiological saline solution was nebulized, was called a Compound (II)-administered group; a group where the solvent for administration was intrabronchially administered to the sensitized rat and an 1 weight/volume % OVA-physiological saline solution was nebulized, was called a solvent-administered group; and a group where the solvent for administration was intrabronchially administered and a physiological saline was nebulized, was called a physiological saline group.
(§6) After 24 hours of the antigenic exposure or of the nebulizing with a physiological saline, a broncho-alveolar lavage (BAL) was conducted. Thus, a rat was anesthetized by an intraperitoneal administration of pentobarbital (manufactured by Dainippon Pharmaceutical) and pulmonary alveoli cavity was washed with a physiological saline via an airway cannula to prepare a broncho-alveolar lavage fluid (BALF).
(§7) The BALF was centrifuged under the condition of 950 rpm (200×g) at 4° C. for 10 minutes, the precipitated cells were suspended in 1 mL of a physiological saline, and total leukocyte numbers were measured by an automatic blood corpuscle counter (manufactured by Nippon Koden). Smeared samples of cells were also prepared using Cytospin III (manufactured by Shandon). After the smeared sample was subjected to a Giemsa staining, 500 cells were observed under an optical microscope, numbers of eosinophils and neutrophils were counted and their ratios were calculated. Number of eosinophils and number of neutrophils were calculated by multiplying the total leukocyte numbers by each ratio of number of eosinophils and number of neutrophils, respectively. Inhibition rate (%) to increases of number of eosinophils and number of neutrophils respectively in BALF was calculated according to the following. [formula]
(§8) A: Numbrer of eosinophils or neutrophils in the solvent-administering group
(§9) B: Numbrer of eosinophils or neutrophils in the Compound (II)-administered group
(§10) C: Numbrer of eosinophils or neutrophils in the physiological saline group

[3] = tested on: antigen-induced eosinophil infiltration; experiment: Antigen-induced eosinophil infiltration, intrabronchial administration (BALF cell count); details: BN rats; for Number of eosinophils: BAL 24 hours after antigenic exposure, mean ± standard error; for inhibitory effect to infiltration of eosinophils induced by antigen (in words): 30 to 100 μg/rat
Protocol: as §1, §2, §3, §4, §5, §6, §7, §8, §9, §10

[4] = Changes in concentration in lung tissues and in plasma upon intra-airway (intrabronchial) administration; details: SD rats, 4 mg/kg; for AUC in lung tissues (concentration in lung tissues) / AUC in plasma (concentration in plasma): 0.25-4 hours; for half-life / Kp: male, rat, other: intrabronchial; for half-life: in vivo, read-out: biological half-life (T1/2) (converted); for Kp: lung tissue / plasma, read-out: ratio of concentration in lung tissues to concentration in plasma (AUC)
Protocol: Male rats of SD strain (Nippon Charles Liver, Kanagawa) were bred under the condition of temperature of 23±1° C. and humidity of 55±5%, and those where body weight was 210 to 240 g at seven weeks age were used for the test. Administration of the test compound (Compound (II)) was conducted under a non-fasting condition, and during the test, solid feed (F-2; Funahashi Nojo, Chiba) and tap water were freely taken by them. Case numbers for the test was made n=2 for each stage.
According to a conventional method, the preparations of Compound (II) and RP 73401 being known as a PDE-IV inhibitor [drawing 9] [J. Med. Chem., volume 37, pages 1696-1703 (1994)] were prepared (lactose/Compound (II) or RP 73401=5/1), and each of them was suspended in 0.125 weight/volume % tyloxapol (Alevaire: registered trade mark, Nippon Shoji, Osaka). The resulting suspension was further diluted with 0.125 weight/volume % tyloxapol containing 0.25 weight/volume % of lactose (Pharmatose 325 M; registered trade mark, DMV International, Veghel, The Nethelands) (a solvent for administration), and a suspension for administration of Compound (II) or RP 73401 having an desired concentration was prepared.
Each of Compound (II) and RP 73401 was intrabronchially administered at a dose of 4 mg/kg, respectively. The solvent for administration or the suspension for administration of Compound (II) or RP 73401 was intrabronchially administered to each of right and left bronchi of an ether-anesthetized rat at a dose of 100 μL (200 μL in total) using a disposable oral sound (for mice; Fuchigami Kikai, Kyoto).
At each of stages of 0.25, 0.5, 1, 2 and 4 hours after the intrabronchial administration, abdomen of rat under a light anesthetization with ether was incised, and about 1 mL of blood was collected from a descending vena cava using a heparin-treated syringe (24 G; 1 mL; Thermo, Tokyo). Plasma was separated from the blood using a cooling centrifugal separator and stored by freezing at −20° C. until the measurement. After washing the pulmonary alveoli, the bronchus was resected to collect the lung. The wet weight of the lung was measured and the lung was stored by freezing.
To 100 μL of the plasma collected hereinabove was added a 200 μL of methanol solution of 25 μg/mL 7-[2-(3,5-dichloro-4-pyridyl)-1-oxoethyl]-4-methoxy-spiro-[1,3-benzodioxole-2,1′-cyclohexane] (an internal standard substance), and the mixture was stirred. The mixture was allowed to stand for 10 minutes on ice, followed by centrifuged, and then 200 μL of the supernatant was dried under a nitrogen flow. The resulting solid was dissolved in 200 μL of methanol and centrifuged. The resulting supernatant was subjected to centrifugal filtration using a centrifugal filtration unit ultrafree (C3GV; 0.22 μm; Nippon Millipore, Tokyo). The filtrate (100 μL) was used as a plasma sample and concentrations of Compound (II) and RP 73401 were measured using a mass spectrometer (LC/MS/MS).
In an immunotube (15 mL: Nunc, Glostrup, Denmark), to the lung prepared hereinabove was added the internal standard substance in which the concentration to the lung tissues was previously made 10 μg/g lung tissues, and the mixture was dried under a nitrogen flow. To the resulting solid was added pure water (Milli-Q SP Reagent Water System: Nippon Millipore, Tokyo) in an amount of one-fold to the wet weight followed by subjecting to homogenizing using a homogenator (Ikemoto Rika Kogyo, Tokyo). A two-fold amount of methanol was further added thereto and the mixture was homogenized, allowed to stand for 10 minutes on ice and centrifuged. The supernatant (300 μL) was taken into a microtube and centrifuged once again. The resulting supernatant (100 μL) was used as a lung sample, and concentrations of Compound (II) and RP 73401 were measured by using of a high-performance liquid chromatography (HPLC).

AUC in lung tissues (concentration in lung tissues) [4] [µg·h/mL]	AUC in plasma (concentration in plasma) [4] [µg·h/mL]	half-life [4] [h]	Kp [4]	Compound	inhibitory effect to gastric excretion (in words) [1]	Inhibition rate to increase of number of neutrophils in BALF ([2]; 30 μg/rat) [%]	Number of neutrophils ([2]; 30 μg/rat)	Inhibition rate to increase of number of neutrophils in BALF ([2]; 100 μg/rat) [%]	Number of neutrophils ([2]; 100 μg/rat)	inhibitory effect to infiltration of neutrophils induced by antigen (in words) [2]	Inhibition rate to increase of number of eosinophils in BALF ([3]; 30 μg/rat) [%]	Number of eosinophils ([3]; 30 μg/rat)	Inhibition rate to increase of number of eosinophils in BALF ([3]; 100 μg/rat) [%]	Number of eosinophils ([3]; 100 μg/rat)	inhibitory effect to infiltration of eosinophils induced by antigen (in words) [3]
3640	0.733	3.81	4970	COc1ccc(C(=O)Cc2c(Cl)cncc2Cl)c2c1OC1(CCCC1)O2 [Compound (II), 7-[2-(3,5-dichloro-4-pyridyl)-1-oxoethyl]-4-methoxy-spiro-[1,3-benzodioxole-2,1′-cyclopentane]]	no significant inhibitory effect to gastric excretion was observed	56	0.64 ± 0.14 10^6/BALF	80	0.43 ± 0.06^# 10^6/BALF	inhibited	50	0.09 ± 0.03 10^6/BALF	86	0.04 ± 0.01^## 10^6/BALF	inhibited
248	0.826	0.341	300	COc1ccc(C(=O)Nc2c(Cl)cncc2Cl)cc1OC1CCCC1 [RP 73401, reference compound]	a dose-depending inhibitory effect to gastric excretion was observed					significant inhibitory activity					significant inhibitory activity
